What was measured:
[1] = system: HCT-15; test: NCI cancer screening, growth inhibition (SRB); format: cell-based; conditions: Colon Cancer, 48 hours exposure
[2] = system: HS578T; test: NCI cancer screening, growth inhibition (SRB); format: cell-based
[3] = system: NCI-H23; test: NCI cancer screening, growth inhibition (SRB); format: cell-based; conditions: Non-Small Cell Lung Cancer, 48 hours exposure
[4] = system: NCI-H460; test: NCI cancer screening, growth inhibition (SRB); format: cell-based; conditions: Non-Small Cell Lung Cancer, 48 hours exposure
[5] = system: K2112; test: cells; conditions: 48 h, read-out: Log10 GI50 (converted)
[6] = system: Leukemia P388 cells; test: In vivo treatment of leukemia P388 cells implanted ip in BDF1 mice
[7] = system: mice; test: Toxicity to mice in the P388 leukemia protocol; format: in vivo, BDF1 mice; conditions: 75 mg/kg/dose ip, twice daily for five days
Protocol: 10^6 Leukemia P388 cells were implanted ip to BDF1 mice obtained from Southern Research Institute, Alabama. L(-)-OddC was administered ip twice daily for five days starting one day after tumor cell implantation.

[8] = system: SP-268; test: NCI cancer screening, growth inhibition (SRB); format: cell-based; conditions: 48 h, read-out: Log10 GI50 (converted)
[9] = system: OVCAR-8; test: NCI cancer screening, growth inhibition (SRB); format: cell-based; conditions: Homo sapiens, OVCAR-8, 48 h, read-out: Log10 GI50 (converted)
[10] = system: OROV1; test: NCI cancer screening, growth inhibition (SRB); format: cell-based; conditions: Ovarian Cancer; 48 hours exposure
Description: PG=100×(Mean ODtest -Mean ODtzero)/(Mean ODtzero)

[11] = cells; conditions: 48 h, read-out: Log10 GI50 (converted)
[12] = system: MALME-3M; test: NCI cancer screening, growth inhibition (SRB); format: cell-based; conditions: Melanoma, 48 hours exposure
[13] = system: UACC-257; test: NCI cancer screening, growth inhibition (SRB); format: cell-based
[14] = system: leukemia cell lines; test: NCI cancer screening, relative sensitivity (FIG. 4); format: cell-based; conditions: FIG. 4, certain leukemia cell lines
Description: (§1) Bars extending to the right represent sensitivity of the cell line to (-)-OddC in excess of the average sensitivity of all tested cell lines. […] Bars extending to the left correspondingly imply sensitivity less than the mean. These cell lines can be easily determined from Table 2, as the log10 concentration will be preceded by a ">".

[15] = system: each type of cancer cell tested; test: as above; format: cell-based; conditions: FIG. 4, on the basis of GI50; at least one cell line of each type
Description: as §1

[16] = system: colon cell lines; test: as above; format: cell-based; conditions: FIG. 4, certain colon cell lines
Description: as §1

[17] = system: prostate cancer cell lines; test: as above; format: cell-based; conditions: FIG. 4, certain prostate cancer cell lines
Description: as §1

[18] = system: OVCAR-3; test: NCI cancer screening, growth inhibition (SRB); format: cell-based; conditions: Homo sapiens, OVCAR-3, 48 h, read-out: Log10 GI50 (converted)
[19] = system: MDA-MB-435; test: NCI cancer screening, growth inhibition (SRB); format: cell-based; conditions: Homo sapiens, MDA-MB-435, 48 h, read-out: Log10 GI50 (converted)
[20] = system: NCI-H322M; conditions: Non-Small Cell Lung Cancer; 48 hours exposure
[21] = Non-Small Cell Lung Cancer; 48 hours exposure
[22] = NCI cancer screening, growth inhibition (SRB); format: cell-based; conditions: Leukemia; 48 hours exposure; read-out: Log10 GI50 (converted)
[23] = system: BSOLT-4; test: NCI cancer screening, growth inhibition (SRB); format: cell-based; conditions: Leukemia; 48 hours exposure
[24] = system: LOX D6VI; test: NCI cancer screening, growth inhibition (SRB); format: cell-based; conditions: Melanoma, 48 hours exposure
[25] = system: SN12C; test: NCI cancer screening, growth inhibition (SRB); format: cell-based; conditions: Renal Cancer, 48 hours exposure
[26] = system: RPMI-2.26; test: NCI cancer screening, growth inhibition (SRB); format: cell-based; conditions: 48 h, read-out: Log10 GI50 (converted)
[27] = system: K2112; conditions: Colon Cancer; 48 hours exposure
[28] = system: SNB-19; test: NCI cancer screening, growth inhibition (SRB); format: cell-based; conditions: CNS Cancer, 48 hours exposure
[29] = system: CAKI-1; test: NCI cancer screening, growth inhibition (SRB); format: cell-based; conditions: Renal Cancer, 48 hours exposure
[30] = system: CCRF-CEM; test: NCI cancer screening, growth inhibition (SRB); format: cell-based; conditions: Leukemia, 48 hours exposure
[31] = system: UACC-62; test: NCI cancer screening, growth inhibition (SRB); format: cell-based; conditions: Melanoma, 48 hours exposure
[32] = 25 mg/kg ip, twice a day, days 1 to 5

With Nc1ccn([C@@H]2CO[C@H](CO)O2)c(=O)n1 [(-)-OddC, (-)-(2S,4S)-1-(2-hydroxymethyl-1,3-dioxolan-4-yl)cytosine] the “Log10 TGI” value [1] was over -4.00, the GI50 ([1]; Homo sapiens, HCT-15, read-out: Log10 GI50 (converted)) was 4.07 µM and the “Log10 TGI” value ([2]; Breast Cancer, 48 hours exposure) was over -4.00. The GI50 ([2]; Homo sapiens, Hs-578T, 48 h, read-out: Log10 GI50 (converted)) was over 100 µM, the GI50 ([3]; Homo sapiens, NCI-H23, read-out: Log10 GI50 (converted)) was 12 µM and the “Log10 TGI” value [3] was over -4.00. For the same compound, the GI50 ([4]; Homo sapiens, NCI-H460, read-out: Log10 GI50 (converted)) was 47.9 µM, the “Log10 TGI” value [4] was over -4.00 and the GI50 [5] was over 100 µM. The “Cures/Total (survivors equal or greater than 45 day life span)” value [6, 32] was 1/6, the “ILS (Increased Life Span percent above control)” value [6, 32] was 103% and the “Mean Survival Time” value ([6]; 25 mg/kg ip, twice a day, days 1 to 5 (control 13.3 days)) was 27 days. The “life span increase of the remaining five mice” value ([6]; 25 mg/kg/dose ip, twice daily for five days) was 103%, the long term survivors ([6]; of six mice treated with 25 mg/kg/dose) was “one long term survivor” and the “toxicity to the mice” value [7] was “toxic to the mice”. For the same compound, the GI50 [8] was 6.61 µM, the GI50 [9] was 1.51 µM and the “Log10 TGI” value [10] was over -4.00. The GI50 [11] was over 100 µM, the GI50 ([12]; Homo sapiens, Malme-3M, read-out: Log10 GI50 (converted)) was 30.9 µM and the “Log10 TGI” value [12] was over -4.00. The GI50 ([13]; Homo sapiens, UACC-257, 48 h, read-out: Log10 GI50 (converted)) was over 100 µM, the “Log10 TGI” value ([13]; Melanoma, 48 hours exposure) was over -4.00 and the “sensitivity to (-)-OddC” value [14] was “extreme sensitivity”. For the same compound, the “sensitivity to (-)-OddC” value [15] was “exhibited sensitivity”, the “sensitivity to (-)-OddC” value [16] was “extreme sensitivity” and the “sensitivity to (-)-OddC” value [17] was “extreme sensitivity”. The GI50 [18] was 36.3 µM, the GI50 [19] was 24 µM and the “Log10 TGI” value [20] was over -4.00. The “Log10 TGI” value [21] was over -4.00, the GI50 [22] was 0.219 µM and the “Log10 TGI” value [23] was -4.39. For the same compound, the “Log10 TGI” value [24] was over -4.00, the GI50 ([24]; read-out: Log10 GI50 (converted)) was 0.407 µM and the GI50 ([25]; Homo sapiens, SN12C, read-out: Log10 GI50 (converted)) was 0.537 µM. The “Log10 TGI” value [25] was over -4.00, the GI50 [26] was 93.3 µM and the “Log10 TGI” value [27] was over -4.00. For the same compound, the “Log10 TGI” value [28] was over -4.00, the GI50 ([28]; Homo sapiens, SNB-19, read-out: Log10 GI50 (converted)) was 1.95 µM and the GI50 ([29]; Homo sapiens, CAKI-1, read-out: Log10 GI50 (converted)) was 0.224 µM. The “Log10 TGI” value [29] was -4.87, the GI50 ([30]; Homo sapiens, CCRF-CEM, read-out: Log10 GI50 (converted)) was 0.229 µM and the “Log10 TGI” value [30] was over -4.00. The GI50 ([31]; Homo sapiens, UACC-62, read-out: Log10 GI50 (converted)) was 2.95 µM and the “Log10 TGI” value [31] was over -4.00.

Source: patent US5817667A, “Compounds and methods for the treatment of cancer” (University of Georgia Research Foudation, priority 1994, dated 1998)
